Assay results published in patent publication US11992489B2, “Substituted tetrahydroquinoline compounds as indoleamine 2,3-dioxygenase inhibitors” (Merck Sharp & Dohme LLC, priority 2018, dated 2024).

Biological target: IDO1 (Homo sapiens, UniProt P14902)
Experiment: IDO1 cellular assay in HeLa cells stimulated with IFNγ
Assay type: cell-based
Details: IFNγ 100 ng/mL, 300 uM L-tryptophan, about 48 hours, fluorescence readout, read-out: HeLa Cell Potency, IC50
Protocol: Biological Assays IDO1 Cellular Assay in HeLa Cells Stimulated with IFNγ
HeLa cells were cultured in complete HeLa culture medium (90% EMEM, 10% heat-inactivated fetal bovine serum) and expanded to about 1×10^9 cells. The cells were then collected and frozen down at 1×10^7 cells/vial in 1 mL frozen medium (90% complete HeLa culture medium, 10% DMSO).
Compounds to be tested were serially diluted in ten 3-fold steps in DMSO starting from 10 mM DMSO stocks in Echo low volume plate(s). Compound dilutions or DMSO alone were then dispensed from the dilution plate(s) into Greiner black 384-well assay plate(s) (catalog #781086, 50 nL/well) using an Echo 550 acoustic liquid handler (Labcyte).
Frozen HeLa cells were thawed and transferred into HeLa assay medium (99% complete HeLa culture medium, 1% Pen/Strep) with 20 mL medium/vial of cells. The cells were spun down at 250 g in a table top centrifuge for 5 min and suspended in same volume of HeLa assay medium. The cells were then counted and adjusted to a density of 2×10^5 cells/mL in HeLa assay medium. Sterile L-tryptophan were added to the cells with final concentration of 300 uM L-tryptophan. A small aliquot (2 mL/plate) of HeLa cells were set aside and were not treated with IFNγ, to serve as the Max-E control.
HeLa cells with and without IFNγ were dispensed to the respective wells of 384-well assay plates containing the compounds. The plates were incubated for about 48 hours at a 37° C., 5% CO2 incubator. Afterwards, 12 μL of 0.5 M methyl isonipecotate in dimethyl sulfoxide were added into each well and the plates were sealed and incubated at 37° C. without CO2 overnight. The plates were centrifuged for 1 min at 200×g. The resulting fluorescence was measured in a Spectramax plate reader (Molecular Devices) with a 400 nm excitation filter and a 510 nm emission filter.
The fluorescence intensity of each well was corrected for the background observed in wells with non-IFNγ-treated cells and was expressed as a fraction of the intensity observed in wells of IFNγ-treated cells and DMSO only. Potencies were calculated by linear least squares fit to the four parameter logistic IC50 equation.

Sequence of IDO1 (P14902 whole entry): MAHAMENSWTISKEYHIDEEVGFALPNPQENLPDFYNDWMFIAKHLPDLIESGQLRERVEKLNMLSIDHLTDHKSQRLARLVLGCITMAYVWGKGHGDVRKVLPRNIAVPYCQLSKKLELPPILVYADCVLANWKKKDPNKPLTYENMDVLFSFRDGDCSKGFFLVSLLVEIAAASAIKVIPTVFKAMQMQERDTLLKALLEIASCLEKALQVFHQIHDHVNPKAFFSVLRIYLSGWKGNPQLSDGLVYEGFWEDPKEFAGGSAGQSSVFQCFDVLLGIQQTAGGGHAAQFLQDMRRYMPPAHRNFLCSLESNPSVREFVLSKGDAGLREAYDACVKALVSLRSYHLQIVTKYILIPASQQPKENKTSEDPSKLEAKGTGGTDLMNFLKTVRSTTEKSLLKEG

Row | SMILES | IC50 [nM]
1 | O=C(NC1(c2ccc3c(n2)CCCC3Nc2cccc(Cl)c2)CC1)c1ccc(F)cc1 (stereo not drawn) [Example 17, N-(1-(5-((3-chlorophenyl)amino)-5,6,7,8-tetrahydroquinolin-2-yl)cyclopropyl)-4-fluorobenzamide] | 38.2
2 | Cc1ncc(C2CCCc3nc(C4(NC(=O)c5ccc(F)cc5)CC4)ccc32)cn1 (stereo not drawn) [Example 30, 4-fluoro-N-(1-(5-(2-methylpyrimidin-5-yl)-5,6,7,8-tetrahydroquinolin-2-yl)cyclopropyl)benzamide] | 1420
3 | Cc1ncc(OC2CCCc3nc(C4(NC(=O)c5ccc(F)cc5)CC4)ccc32)cn1 (stereo not drawn) [Example 15, 4-fluoro-N-(1-(5-((2-methylpyrimidin-5-yl)oxy)-5,6,7,8-tetrahydroquinolin-2-yl)cyclopropyl)benzamide] | 130
4 | O=C(NC1(c2ccc3c(n2)CCCC3Oc2ccc(F)nc2)CC1)c1ccc(F)cc1 (stereo not drawn) [Example 9, 4-fluoro-N-(1-(5((6-fluoropyridin-3-yl)oxy)-5,6,7,8-tetrahydroquinolin-2-yl)cyclopropyL)benzamide] | 24.4
5 | Cc1ccncc1OC1CCCc2nc(C3(NC(=O)c4ccc(F)cc4)CC3)ccc21 (stereo not drawn) [Example 6, 4-fluoro-N-(1-(5((4-methylpyridin-3-yl)oxy)-5,6,7,8-tetrahydroquinolin-2-yl)cyclopropyl)benzamide] | 9.96
6 | CN(C)c1ncc(OC2CCCc3nc(C4(NC(=O)c5ccc(F)cc5)CC4)ccc32)cn1 (single isomer, unassigned) [Example 4, N-(1-(5-((2-(dimethylamino)pyrimidin-5-yl)oxy)-5,6,7,8-tetrahydroquinolin-2-yl)cyclopropyl)-4-fluorobenzamide] | 9.34
7 | O=C(NC1(c2ccc3c(n2)CCCC3OCC2CC2)CC1)c1ccc(F)cc1 (single isomer, unassigned) [Example 19, N-(1-(5-(cyclopropylmethoxy)-5,6,7,8-tetrahydroquinolin-2-yl)cyclopropyl)-4-fluorobenzamide] | 65.9
8 | O=C(NC1(c2ccc3c(n2)CCCC3Nc2cccc(Cl)c2)CC1)c1ccc(F)cc1 (stereo not drawn) [Example 16, N-(1-(5-((3-chlorophenyl)amino)-5,6,7,8-tetrahydroquinolin-2-yl)cyclopropyl)-4-fluorobenzamide] | 13.9
9 | O=C(NC1(c2ccc3c(n2)CCCC3Oc2cncc(Cl)c2)CC1)c1ccc(F)cc1 (stereo not drawn) [Example 11, N-(1-(5-((5-chloropyridin-3-yl)oxy)-5,6,7,8-tetrahydroquinolin-2-yl)cyclopropyl)-4-fluorobenzamide] | 3.96
10 | O=C(NC1(c2ccc3c(n2)CCCC3OCC2CC2)CC1)c1ccc(F)cc1 (stereo not drawn) [Example 18, N-(1-(5-(cyclopropylmethoxy)-5,6,7,8-tetrahydroquinolin-2-yl)cyclopropyl)-4-fluorobenzamide] | 58.6
11 | O=C(NC1(c2ccc3c(n2)CCCC3Oc2cncc(Cl)c2)CC1)c1ccc(F)cc1 (stereo not drawn) [Example 7, N-(1-(5-((5-chloropyridin-3-yl)oxy)-5,6,7,8-tetrahydroquinolin-2-yl)cyclopropyl)-4-fluorobenzamide] | 5.32
12 | N#Cc1cccc(OC2CCCc3nc(C4(NC(=O)c5ccc(F)cc5)CC4)ccc32)c1 (stereo not drawn) [Example 12, N-(1-(5-(3-cyanophenoxy)-5,6,7,8-tetrahydroquinolin-2-yl)cyclopropyl)-4-fluorobenzamide] | 5.69
13 | Cc1cncc(C2CCCc3nc(C4(NC(=O)c5ccc(F)cc5)CC4)ccc32)c1 (stereo not drawn) [Example 26, 4-fluoro-N-(1-(5-(5-methylpyridin-3-yl)-5,6,7,8-tetrahydroquinolin-2-yl)cyclopropyl)benzamide] | 183
14 | O=C(NC1(c2ccc3c(n2)CCCC3c2cncc(C(F)(F)F)c2)CC1)c1ccc(F)cc1 (stereo not drawn) [Example 28, 4-fluoro-N-(1-(5-(5-(trifluoromethyl)pyridin-3-yl)-5,6,7,8-tetrahydroquinolin-2-yl)cyclopropyl)benzamide] | 212
15 | N#Cc1cccc(OC2CCCc3nc(C4(NC(=O)c5ccc(F)cc5)CC4)ccc32)c1 (stereo not drawn) [Example 8, N-(1-(5-(3-cyanophenoxy)-5,6,7,8-tetrahydroquinolin-2-yl)cyclopropyl)-4-fluorobenzamide] | 2.16
16 | Cc1ccncc1OC1CCCc2nc(C3(NC(=O)c4ccc(F)cc4)CC3)ccc21 (stereo not drawn) [Example 10, 4-fluoro-N-(1-(5-((4-methylpyridin-3-yl)oxy)-5,6,7,8-tetrahydroquinolin-2-yl)cyclopropyl)benzamide] | 108
17 | Cc1nccc([C@H]2CCCc3nc(C4(NC(=O)c5ccc(F)cc5)CC4)ccc32)n1 (single isomer, unassigned) [Example 23] | 42.3
18 | O=C(NC1(c2ccc3c(n2)CCCC3Oc2ccc(F)nc2)CC1)c1ccc(F)cc1 (stereo not drawn) [Example 5, 4-fluoro-N-(1-(5((6-fluoropyridin-3-yl)oxy)-5,6,7,8-tetrahydroquinolin-2-yl)cyclopropyl)benzamide] | 12.4
19 | O=C(NC1(c2ccc3c(n2)CCCC3c2cncc(F)c2)CC1)c1ccc(F)cc1 (stereo not drawn) [Example 24, 4-Fluoro-N-(1-(5-(5-fluoropyridin-3-yl)-5,6,7,8-tetrahydroquinolin-2-yl)cyclopropyl)benzamide] | 384
20 | O=C(NC1(c2ccc3c(n2)CCCC3OCC2CC2)CC1)c1ccc(F)cc1 (single isomer, unassigned) [Example 20, N-(1-(5-(cyclopropylmethoxy)-5,6,7,8-tetrahydroquinolin-2-yl)cyclopropyl)-4-fluorobenzamide] | 95.4
21 | Cc1nccc(C2CCCc3nc(C4(NC(=O)c5ccc(F)cc5)CC4)ccc32)n1 (stereo not drawn) [Example 21, 4-Fluoro-N-(1-(5-(2-methylpyrimidin-4-yl)-5,6,7,8-tetrahydroquinolin-2-yl)cyclopropyl)benzamide] | 25
22 | CCC(NC(=O)c1ccc(F)cc1)c1ccc2c(n1)CCCC2c1cncc(C(F)(F)F)c1 (stereo not drawn) [Example 29, 4-fluoro-N-(1-(5-(5-(trifluoromethyl)pyridin-3-yl)-5,6,7,8-tetrahydroquinolin-2-yl)propyl)benzamide] | 854
23 | Cc1nccc([C@@H]2CCCc3nc(C4(NC(=O)c5ccc(F)cc5)CC4)ccc32)n1 (single isomer, unassigned) [Example 22] | 41.3
24 | CCC(NC(=O)c1ccc(F)cc1)c1ccc2c(n1)CCCC2c1cncc(C)c1 (stereo not drawn) [Example 27, 4-fluoro-N-(1-(5-(5-methylpyridin-3-yl)-5,6,7,8-tetrahydroquinolin-2-yl)propyl)benzamide] | 643
25 | Cc1ncc(OC2CCCc3nc(C4(NC(=O)c5ccc(F)cc5)CC4)ccc32)cn1 (stereo not drawn) [Example 13, 4-fluoro-N-(1-(5-((2-methylpyrimidin-5-yl)oxy)-5,6,7,8-tetrahydroquinolin-2-yl)cyclopropyl)benzamide] | 44.5
26 | CN(C)c1ncc(OC2CCCc3nc(C4(NC(=O)c5ccc(F)cc5)CC4)ccc32)cn1 (stereo not drawn) [Example 14, N-(1-(5-((2-(dimethylamino)pyrimidin-5-yl)oxy)-5,6,7,8-tetrahydroquinolin-2-yl)cyclopropyl)-4-fluorobenzamide] | 81.4
27 | CCC(NC(=O)c1ccc(F)cc1)c1ccc2c(n1)CCCC2c1cncc(F)c1 (stereo not drawn) [Example 25, 4-fluoro-N-(1-(5-(5-fluoropyridin-3-yl)-5,6,7,8-tetrahydroquinolin-2-yl)propyl)benzamide] | 2190
